{"source": "patent US9453837B2", "about": "“Grafted dinuclear metal complexes, and use thereof as cellular microparticle sensors” (CENTRE NATIONAL DE LA RECHERCHE SCIENTIFIQUE (CNRS), priority 2011, dated 2016)", "test_system": "microparticles derived from the activation of the cell culture of HMEC1 human microvascular endothelial cells by TNF-α", "assay": "Colorimetric assay of cellular microparticles by immobilisation of the complex on a microtiter plate (sensitivity study)", "assay_type": "binding", "details": "complex immobilised on polyglutaraldehyde-activated PVC plate; anti-CD105 antibody, peroxidase secondary antibody, ABTS; FIG. 1", "method": "a) Reagents: • Glutaraldehyde 25% • Ethanolamine 16.5 M • Bicarbonate buffer (Na Bic), at pH 9.5, 1 M, to be made only by titration of a solution of NaH2CO3 (pH 8.3) with a solution of Na2CO3 at pH 11, 6. • HEPES buffer, 10 mM pH 7.4; 0.15 M NaCl • (hBPMP/Zinc)-C6H2, 150 μM\nb) Protocols: • Polymerisation of glutaraldehyde: • 50 ml of a solution of 2.5% glutaraldehyde is prepared in 0.1 M Na Bic, then the mixture is placed in a sealed vial at 37° C. for 2 hours. • Adsorption of polyglutaraldehyde on the surface of polyvinyl chloride: • A microtiter plate with 96 wells is used. • 100 μL of 2.5% glutaraldehyde is deposited in each well and left for 2 hours at 22° C. The polyglutaraldehyde is removed and the surface is rinsed 3 times with water. • Immobilisation of the complex [(Zn2)(BPMP-C6H2)(μ-OH)].(ClO4)2 • The complex in 0.1 M HEPES, pH 8.2 is immobilised on the surface of the polyvinyl chloride plate for 24 hours at +22° C.: • The free aldehyde groups are saturated with 0.3 M ethanolamine by incubating the surface with this solution for 2 hours at 22° C., then the ethanolamine is eliminated by washing with water and then washing 3 times in 10 mM HEPES at pH 7.4, 0.15 M NaCl. […]\nThe reading is performed by means of a spectrophotometer. […]"}
{"substance": "[μ-[6-amino-N-(3,5-bis((bis(2-pyridylmethyl)amino)methyl)-4-hydroxybenzyl)hexanamide]]-μ-hydroxo, dizinc, diperchlorate [Example 4]", "values": [{"measurement": "signal (initial velocity Vi of peroxidase substrate degradation) based on the quantity of microparticles", "value": "specific dose-response"}]}
